Molecules are shown by their SMILES.

The text below walks through data of US20250268958A1, “COMMENSAL BACTERIA PROMOTE ENDOCRINE-RESISTANCE IN PROSTATE CANCER VIA ANDROGEN BIOSYNTHESIS” (FONDAZIONE PER L'ISTITUTO ONCOLOGICO DI RICERCA (IOR), priority 2021, published 2025).

Experiment [1] concerns Ruminococcaceae family. In words: Gut microbiota of mCRPC patients stratified by ADT regimen (whole genome metagenome). In kind it is in vivo, human. The settings on record: Abiraterone vs Enzalutamide. As to the method:
FIG. 16—Different ADT regimens alter gut microbiota composition. (A) Pie chart representing the number of CRPC patients receiving Enzalutamide, Abiraterone or other treatment (Apalutamide, Docetaxel, Cabazitaxel or no active treatment) at the moment of the rectal swab. […] (C) Patients treated with enzalutamide (n=14) and apalutamide (n=1) were stratified according to the circulating testosterone level (≤10 ng/dL or >10 ng/dL). Pie charts show, within each group, the fraction of patients having Ruminococcus DSM_10044 in their gut microbiota.
Collection of patient feces. Patients with hormone-sensitive (HSPC) and metastatic CRPC consented to the analysis of their rectal swabs. […]
Whole genome metagenome analysis of patient feces. […] DNA was analyzed by Qubit (Invitrogen, Thermo Fisher Scientific, Waltham, USA) and integrity was checked by agarose gel electrophoresis.
Illumina TruSeq DNA libraries were prepared using the TruSeq nano DNA Library preparation kit (Illumina, San Diego, USA) according to the manufacturer's instructions. […] The final libraries were quantified using a Quant-iT™ PicoGreen™ ds DNA Assay Kit (Thermo Fisher Scientific, Waltham, USA) and equimolarly pooled prior to sequencing. […] Quality of the reads in fastq format was checked with the software FastQC (version 0.11.8). […]

The subject of a further experiment is TRAMP-C1 cells. In words: TRAMP-C1 allograft tumor model, castrated (CTX) or sham-operated mice. The settings on record: high dose of testosterone vs vehicle.
Experiment [2] relates to Ruminococcaceae family. Put plainly: Gut microbiota composition in TRAMP-C1 mice under bipolar androgen therapy. Format: in vivo, mouse. Conditions: high dose of testosterone vs vehicle. How it is done:
FIG. 7—Pten^pc−/− and LNCaP castrated mice harbor a peculiar gut microbiota. […] (E) qPCR showing the abundance of R. gnavus and B. acidifaciens in feces of LNCaP mice that were either sham-operated (n=4), CTX (n=6), CTX+enzalutamide (n=6) at 85 days. TRAMP-C1 mouse models were treated with either vehicle or high dose of testosterone as per bipolar androgen therapy. (F) Tumor volume (vehicle n=5, high testosterone n=5). (G) Serum testosterone levels (vehicle n=5, high-testosterone n=5). (H) Heatmap representing differentially abundant bacteria (FDR<0.05) between mice injected with vehicle or high testosterone-dose (vehicle n=4, high-testosterone n=4). […]
Pten^pc−/− Murine 16S rDNA sequencing analysis and bacteria qPCR. […] DNA was extracted using a GNOME DNA isolation kit (MP) following the protocol described in (J. P. Furet et al., Comparative assessment of human and farm animal faecal microbiota using real-time quantitative PCR. FEMS Microbiol Ecol 68, 351-362 (2009)). […] In short, DNA concentration and quality were evaluated using NanoDrop 2000. […] PCR products were visualized on an agarose gel then quantified by qPCR using the KAPA Library Quantification Kit (KAPA Biosystems, KK4824). […] The pooled library was purified using the Agencourt AMPure XP kit (Beckman Coulter, A63880) and quantified with the same method prior to sequence using paired-end (read length=300 bases) on Illumina MiSeq. […]

Protocol for TRAMP-C1 cells: C57BL6/N mice were challenged s.c. with 2.5×10^6 TRAMP-C1 cells. When tumors became palpable, mice were either castrated (CTX) or sham-operated (sham). After surgery, mice were either administered normal drinking water or antibiotic cocktail (ABX: neomycin 1 g/L, ampicillin 1 g/L, vancomycin 0.5 g/L and metronidazole 2 mg/mouse every other day). (A) Tumor volume (Sham n=14, Sham ABX n=4, CTX n=20, CTX ABX n=10) and (B) survival curve. […] Statistical analysis was performed with: (A), (F), (G) two-way ANOVA and Sidak's multiple comparison test; (B), (H), (1) Mantel Cox test; (C), (E), (K) unpaired two-sided Student's t-test. NS, not significant; *P<0.05; **P<0.01; ***P<0.001; ****P<0.0001.
Mice. […] 4 weeks old male C57BL6/N and NOD/SCID mice were purchased from Charles River (Calco, Italy) and acclimatized for four weeks before experimentation.

As to `CNC(=O)c1ccc(N2C(=S)N(c3ccc(C#N)c(C(F)(F)F)c3)C(=O)C2(C)C)cc1F` [Enzalutamide], the “expansion of Ruminococcaceae family in gut microbiota” value in the experiment on Ruminococcaceae family [1] was “presented an expansion of Ruminococcaceae family”.
Consider `C[C@]12CC[C@H]3[C@@H](CCC4=CC(=O)CC[C@@]43C)[C@@H]1CC[C@@H]2O` [bipolar androgen therapy, Testosterone], for which the tumor volume result with TRAMP-C1 cells is “promoted tumor inhibition”. In the experiment on Ruminococcaceae family [2], the “abundance of Ruminococcaceae family” value is reported as “decreased the abundance of Ruminococcaceae family”.
